In patent US20220323406A1, “METHODS AND COMPOSITIONS FOR DIFFERENTIATING STEM CELLS” (Massachusetts Institute of Technology, priority 2019, published 2022):

Columns and labels:
[1] = tested on: ENR+CD organoids (ISC to Paneth cell differentiation); experiment: Primary screen: CCh-stimulated lysozyme secretion LYZ.S, 2.5-D 384-well ENR+CD organoid differentiation; format: cell-based, mouse; conditions: primary screen, FC vs plate median
From the text: (§1) High-throughput screening.

ENR+CD organoids = experiment: Primary screen: ATP (CellTiter-Glo 3D, CTG) cell number/viability, 2.5-D 384-well ENR+CD organoids; conditions: primary screen; for Z.CTG: standard z score; for Dose.FC.CTG: FC vs plate median;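 for all read-outs here: compounds given at plating and again on day 3 over a 6-day differentiation from ENR+CV stem-cell-enriched precursors, ATP measured on day 6, plate median as control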
[2] = tested on: ENR+CD organoids (ISC to Paneth cell differentiation); experiment: Primary screen: basal (non-stimulated) lysozyme secretion LYZ.NS, 2.5-D 384-well ENR+CD organoid differentiation; format: cell-based, mouse; conditions: primary screen; for Z.LYZ.NS: standard z score; for Dose.FC.LYZ.NS: FC vs plate median
From the text: as §1

| Compound | Dose.FC.LYZ.S ([1]; dose 0.08 uM) | Dose.FC.LYZ.S ([1]; dose 0.40 uM) | Dose.FC.LYZ.S ([1]; dose 2.00 uM) | Dose.FC.LYZ.S ([1]; dose 10.00 uM) | Z.CTG (ENR+CD organoids; dose 0.08 uM) | Z.CTG (ENR+CD organoids; dose 0.40 uM) | Z.CTG (ENR+CD organoids; dose 2.00 uM) | Z.CTG (ENR+CD organoids; dose 10.00 uM) | Dose.FC.CTG (ENR+CD organoids; dose 0.08 uM) | Dose.FC.CTG (ENR+CD organoids; dose 0.40 uM) | Dose.FC.CTG (ENR+CD organoids; dose 2.00 uM) | Dose.FC.CTG (ENR+CD organoids; dose 10.00 uM) | Z.LYZ.NS ([2]; dose 0.08 uM) | Z.LYZ.NS ([2]; dose 0.40 uM) | Z.LYZ.NS ([2]; dose 2.00 uM) | Z.LYZ.NS ([2]; dose 10.00 uM) | Dose.FC.LYZ.NS ([2]; dose 0.08 uM) | Dose.FC.LYZ.NS ([2]; dose 0.40 uM) | Dose.FC.LYZ.NS ([2]; dose 2.00 uM) | Dose.FC.LYZ.NS ([2]; dose 10.00 uM) |
| --- | --- | --- | --- | --- | --- | --- | --- | --- | --- | --- | --- | --- | --- | --- | --- | --- | --- | --- | --- | --- |
| C1=N/C2=N/c3ccc(OCCN4CCCC4)c(c3)COC/C=C/COCc3cccc(c3)C(=C1)N2 [Pacritinib (SB1518)] | 0.066 log2 fold change | −0.032 log2 fold change | −0.304 log2 fold change | −0.419 log2 fold change | −0.014 | 0.236 | −0.560 | −3.047 | −0.006 log2 fold change | 0.099 log2 fold change | −0.235 log2 fold change | −1.276 log2 fold change | 0.795 | −0.299 | −1.908 | −2.391 | 0.091 log2 fold change | −0.034 log2 fold change | −0.219 log2 fold change | −0.275 log2 fold change |
| CC(=O)c1c(C)c2cnc(Nc3ccc(N4CCNCC4)cn3)nc2n(C2CCCC2)c1=O.Cl [Palbociclib (PD-0332991) HCl] | 0.004 log2 fold change | −0.042 log2 fold change | −0.122 log2 fold change | −0.203 log2 fold change | 0.404 | −0.836 | −0.199 | −1.617 | 0.169 log2 fold change | −0.350 log2 fold change | −0.083 log2 fold change | −0.677 log2 fold change | −0.055 | −0.248 | −0.440 | −1.150 | −0.006 log2 fold change | −0.029 log2 fold change | −0.051 log2 fold change | −0.132 log2 fold change |
| CC(=O)O[C@H]1C[C@@H]2CC[C@@H]3[C@H](CC[C@@]4(C)[C@H]3C[C@H]([N+]3(C)CCCCC3)[C@@H]4OC(C)=O)[C@@]2(C)C[C@@H]1[N+]1(C)CCCCC1.[Br-].[Br-] [Pancuronium dibromide] | 0.213 log2 fold change | 0.094 log2 fold change | 0.099 log2 fold change | 0.004 log2 fold change | 0.519 | 0.541 | −0.029 | 0.148 | 0.217 log2 fold change | 0.226 log2 fold change | −0.012 log2 fold change | 0.062 log2 fold change | 1.118 | 0.406 | 0.806 | 0.302 | 0.128 log2 fold change | 0.047 log2 fold change | 0.093 log2 fold change | 0.035 log2 fold change |
| Cc1[nH]c2ccccc2c1CCNCc1ccc(/C=C/C(=O)NO)cc1 [Panobinostat (LBH589)] | −0.034 log2 fold change | −0.042 log2 fold change | −0.285 log2 fold change | −0.320 log2 fold change | 0.706 | 0.506 | −1.283 | −2.395 | 0.295 log2 fold change | 0.212 log2 fold change | −0.537 log2 fold change | −1.003 log2 fold change | 0.014 | −0.232 | −1.329 | −1.891 | 0.002 log2 fold change | −0.027 log2 fold change | −0.153 log2 fold change | −0.217 log2 fold change |
| Oc1cc(O)cc(/C=C/c2ccc(O)c(O)c2)c1 [Piceatannol] | 0.094 log2 fold change | 0.045 log2 fold change | 0.016 log2 fold change | −0.104 log2 fold change |  |  |  |  | 0.232 log2 fold change | −0.090 log2 fold change | 0.074 log2 fold change | −0.071 log2 fold change | 0.698 | 0.375 | 0.221 | −0.184 | 0.080 log2 fold change | 0.043 log2 fold change | 0.025 log2 fold change | −0.021 log2 fold change |
